In patent publication US11407711B2, “Benzamide compound and use thereof” (METISA BIOTECHNOLOGY CO., LTD., priority 2018, dated 2022):
Read-outs that look alike come from different tables or passages of the source.

Columns and labels:
Assay type in all cases: in vivo
armyworm = test: Insecticidal activity against armyworm (Airbrush spray on maize blade segments); conditions: 72 h, read-out: fatality rate against armyworm
Procedure: (§1) The compound to be tested was dissolved by a mixed solvent of acetone/methanol (1:1), and then diluted by water containing 0.1% (wt) Tween 80 to the required concentration.
(§2) An Airbrush spray method was adopted for the determination of the activity, with armyworm, Plutella xylostella and Chilo suppressalis as targets.
Determination method: maize blades were cut into 2 cm (length) segments; with the pressure of Airbrush spray being 10 psi (about 0.7 kg/cm^2), both sides of each blade segment were sprayed with the amount of 0.5 ml. After dried in the shade, each segment was inoculated with 10 3rd-instar larvaes, 3 repeats for each segment. And then, the treated segments were put into an observation room (25° C., relative humidity: 60-70%) for cultivation; the number of the survivals was surveyed 1 d, 2 d and 3 d after administration, and then the death rate was calculated.

Plutella xylostella = test: Insecticidal activity against Plutella xylostella (Airbrush spray on cabbage leaf discs)
Procedure: as §1, §2
Determination method: cabbage blades were punched into 2 cm (diameter) leaf discs by a puncher; with the pressure of Airbrush spray being 10 psi (about 0.7 kg/cm^2), both sides of each leaf disc were sprayed with the amount of 0.5 ml. After dried in the shade, each leaf disc was inoculated with 10 3rd-instar larvaes, 3 repeats for each leaf disc. And then, the treated leaf discs were put into an observation room (25° C., relative humidity: 60-70%) for cultivation; the number of the survivals was surveyed 1 d, 2 d and 3 d after administration, and then the death rate was calculated.

Chilo suppressalis = test: Insecticidal activity against Chilo suppressalis (spray on rice seedlings, stems fed to larvae); conditions: for pest or weed control at 4 µg/mL / pest or weed control at 40 µg/mL / pest or weed control at 1 µg/mL: Chilo suppressalis, 72 h, read-out: fatality rate against Chilo suppressalis
Procedure: as §1, §2
Determination method: 1) preparation of rice seedlings: rice was cultivated in small plastic cups (diameter: 4.5 cm and height: 4 cm) at a constant temperature room (temperature: 26-28° C., relative humidity: 60-80% around and illumination: 16 hL:8 hD), after the rice grew to a 4-5 leaf stage, vigorous and uniform-growth rice seedlings were selected and treated with an insecticide, 3 repeats for each treatment. 2) Preparation of pests for test: 3rd-instar larvaes of Chilo suppressalis fed continuously in the room. 3) Inoculation of pests on rice stems by spray. The whole plants of the rice seedlings were sprayed by a spray method uniformly, with the dose of 15 ml for each treatment. The blank control was treated first, and the above operation was repeated in an order of lower to higher test concentration. After sprayed, rice seedlings were placed in the shade to dry the insecticide liquor, and then stalks about 5 cm above the basal part of the stems were cut to be fed to the pests for test. Glass petri dishes (diameter: […]) were prepared, cushioned by filter paper at the bottom thereof, and subjected to water addition for moisturizing; about 20 pieces of rice stems were put in each dish and inoculated with 10 larvaes; then the petri dishes were closed by non-woven fabrics and placed in a constant temperature room for culture. The number of survivals was surveyed 3 d after administration.

[1] = Plutella xylostella, foliar, 72 h, read-out: Fatality rate (%, 3 d after administration) 10 mg/L, Table 71, 10 mg/L, 3 d after administration
[2] = Plutella xylostella, foliar, 72 h, read-out: fatality rate against Plutella xylostella, 1 mg/L, 3 d after administration
[3] = 0.5 mg/L, 3 d after administration, 3rd-instar larvae
[4] = Plutella xylostella, foliar, 72 h, 1 mg/L, 3 d after administration, read-out: fatality rate against Plutella xylostella
[5] = Plutella xylostella, foliar, 72 h, Table 71, 10 mg/L, 3 d after administration, read-out: Fatality rate (%, 3 d after administration) 10 mg/L
[6] = 40 mg/L, survivals surveyed 3 d after administration
[7] = 0.1 mg/L, 3 d after administration, 3rd-instar larvae
[8] = 4 mg/L, survivals surveyed 3 d after administration

SMILES: N#CCN(C(=O)c1ccccc1)c1cccc(C(=O)Nc2c(Cl)cc(C(F)(C(F)(F)F)C(F)(F)F)cc2Br)c1F [Compound 7.321]
- pest or weed control at 0.1 µg/mL (armyworm): ≥ 90%
- pest or weed control at 0.5 µg/mL (armyworm): ≥ 90%
- pest or weed control at 10 µg/mL (Plutella xylostella; [1]): 100%
- pest or weed control at 1 µg/mL (Plutella xylostella; [2]): ≥ 90%
- pest or weed control at 4 µg/mL (Chilo suppressalis): ≥ 90%
- pest or weed control at 40 µg/mL (Chilo suppressalis): ≥ 90%

SMILES: N#CCN(C(=O)c1ccccc1)c1cccc(C(=O)Nc2c(Br)cc(C(F)(C(F)(F)F)C(F)(F)F)cc2C(F)(F)F)c1F [Compound 9.321]
- pest or weed control at 0.05 µg/mL (armyworm): ≥ 90%
- pest or weed control at 0.1 µg/mL (armyworm): ≥ 90%
- pest or weed control at 0.5 µg/mL (armyworm): ≥ 90%
- pest or weed control at 0.5 µg/mL (Plutella xylostella; Plutella xylostella, foliar, 72 h, read-out: Fatality rate (%, 3 d after administration) 0.5 mg/L, Table 74, 0.5 mg/L, 3 d after administration): 100%
- pest or weed control at 10 µg/mL (Plutella xylostella; [1]): 100%
- pest or weed control at 0.05 µg/mL (Plutella xylostella; Plutella xylostella, foliar, 72 h, read-out: fatality rate against Plutella xylostella, 0.05 mg/L, 3 d after administration): ≥ 90%
- pest or weed control at 0.5 µg/mL (Plutella xylostella; Plutella xylostella, foliar, 72 h, read-out: fatality rate against Plutella xylostella, 0.5 mg/L, 3 d after administration): ≥ 90%
- pest or weed control at 1 µg/mL (Plutella xylostella; [2]): ≥ 90%
- Fatality rate (%, 3 d after administration) 0.05 mg/L (Plutella xylostella; Table 74, 0.05 mg/L, 3 d after administration): 100%
- Fatality rate (%) 1 d after administration (Plutella xylostella; Table 76, fast-acting efficacy, dose 0.05 mg/L, 1 d after administration): 70%
- Fatality rate (%) 2 d after administration (Plutella xylostella; Table 76, fast-acting efficacy, dose 0.05 mg/L, 2 d after administration): 95%
- Fatality rate (%) 3 d after administration (Plutella xylostella; Table 76, fast-acting efficacy, dose 0.05 mg/L, 3 d after administration): 100%
- pest or weed control at 1 µg/mL (Chilo suppressalis): ≥ 90%
- pest or weed control at 4 µg/mL (Chilo suppressalis): ≥ 90%
- pest or weed control at 40 µg/mL (Chilo suppressalis): ≥ 90%
- Fatality rate (%, 3 d after administration) 0.625 mg/L (Chilo suppressalis; Table 78, 0.625 mg/L, 3 d after administration): 98%
- Fatality rate (%, 3 d after administration) 1.25 mg/L (Chilo suppressalis; Table 78, 1.25 mg/L, 3 d after administration): 100%
- Fatality rate (%, 3 d after administration) 2.5 mg/L (Chilo suppressalis; Table 78, 2.5 mg/L, 3 d after administration): 100%

SMILES: Cc1cc(C(F)(C(F)(F)F)C(F)(F)F)cc(Br)c1N(CC#N)C(=O)c1cccc(NC(=O)c2ccccc2)c1F [Compound 20.321]
- pest or weed control at 0.5 µg/mL (armyworm; [3]): ≥ 90%
- pest or weed control at 1 µg/mL (Plutella xylostella; [4]): ≥ 90%
- pest or weed control at 10 µg/mL (Plutella xylostella; [5]): 100%
- pest or weed control at 1 µg/mL (Plutella xylostella; Plutella xylostella, foliar, 72 h, Table 72, 1 mg/L, 3 d after administration, read-out: Fatality rate (%, 3 d after administration) 1 mg/L): 93.9%
- Fatality rate (%, 3 d after administration) 5 mg/L (Plutella xylostella; Table 72, 5 mg/L, 3 d after administration): 100%
- pest or weed control at 40 µg/mL (Chilo suppressalis; [6]): ≥ 90%

SMILES: N#CCN(C(=O)c1cccc(NC(=O)c2ccccc2)c1F)c1c(Cl)cc(C(F)(C(F)(F)F)C(F)(F)F)cc1Br [Compound 21.321]
- pest or weed control at 0.1 µg/mL (armyworm; [7]): ≥ 90%
- pest or weed control at 0.5 µg/mL (armyworm; [3]): ≥ 90%
- pest or weed control at 1 µg/mL (Plutella xylostella; [4]): ≥ 90%
- pest or weed control at 10 µg/mL (Plutella xylostella; [5]): 100%
- pest or weed control at 4 µg/mL (Chilo suppressalis; [8]): ≥ 90%
- pest or weed control at 40 µg/mL (Chilo suppressalis; [6]): ≥ 90%

SMILES: N#CCN(C(=O)c1ccccc1)c1cccc(C(=O)Nc2c(Br)cc(C(F)(C(F)(F)F)C(F)(F)F)cc2I)c1F [Compound 8.321]
- pest or weed control at 0.1 µg/mL (armyworm): ≥ 90%
- pest or weed control at 0.5 µg/mL (armyworm): ≥ 90%
- pest or weed control at 10 µg/mL (Plutella xylostella; [1]): 100%
- pest or weed control at 1 µg/mL (Plutella xylostella; [2]): ≥ 90%
- pest or weed control at 4 µg/mL (Chilo suppressalis): ≥ 90%
- pest or weed control at 40 µg/mL (Chilo suppressalis): ≥ 90%

SMILES: N#CCN(C(=O)c1ccc(C#N)cc1)c1cccc(C(=O)Nc2c(Br)cc(C(F)(C(F)(F)F)C(F)(F)F)cc2Br)c1F [Compound 2.17]
- pest or weed control at 0.05 µg/mL (armyworm; 0.05 mg/L, 3 d after administration, 3rd-instar larvae): ≥ 90%
- pest or weed control at 0.1 µg/mL (armyworm; [7]): ≥ 90%
- pest or weed control at 0.5 µg/mL (armyworm; [3]): ≥ 90%
- pest or weed control at 0.5 µg/mL (Plutella xylostella; Plutella xylostella, foliar, 72 h, 0.5 mg/L, 3 d after administration, read-out: fatality rate against Plutella xylostella): ≥ 90%
- pest or weed control at 1 µg/mL (Plutella xylostella; [4]): ≥ 90%
- pest or weed control at 10 µg/mL (Plutella xylostella; [5]): 100%
- pest or weed control at 0.5 µg/mL (Plutella xylostella; Plutella xylostella, foliar, 72 h, Table 73, 0.5 mg/L, 3 d after administration, read-out: Fatality rate (%, 3 d after administration) 0.5 mg/L): 100%
- pest or weed control at 1 µg/mL (Plutella xylostella; Plutella xylostella, foliar, 72 h, Table 73, 1 mg/L, 3 d after administration, read-out: Fatality rate (%, 3 d after administration) 1 mg/L): 100%
- pest or weed control at 1 µg/mL (Chilo suppressalis; 1 mg/L, survivals surveyed 3 d after administration): ≥ 90%
- pest or weed control at 4 µg/mL (Chilo suppressalis; [8]): ≥ 90%
- pest or weed control at 40 µg/mL (Chilo suppressalis; [6]): ≥ 90%
